According to paper PMC5238498, “Bivalent IAP antagonists, but not monovalent IAP antagonists, inhibit TNF-mediated NF-κB signaling by degrading TRAF2-associated cIAP1 in cancer cells” (Cell Death Discovery, 2017):

target: T1, cIAP1 BIR3 domain (Homo sapiens, UniProt Q13490); assay: fluorescence polarization assay; details: read-out: cIAP1 BIR3 binding (Ki, nmol/l)
T1 construct: gene BIRC2; isolated purified BIR3 domain
Text: fluorescence polarization assay on cIAP1 BIR3 domain

T1 sequence (Q13490 260-352 limits assumed): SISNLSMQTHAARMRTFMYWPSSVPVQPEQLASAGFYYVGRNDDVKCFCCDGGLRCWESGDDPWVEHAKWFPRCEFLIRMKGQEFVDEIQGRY

Row | Compound | Ki
1 | CN[C@@H](C)C(=O)N[C@H](C(=O)N1C[C@@H](O)C[C@H]1Cc1c(-c2[nH]c3cc(F)ccc3c2C[C@@H]2C[C@H](O)CN2C(=O)[C@@H](NC(=O)[C@H](C)NC)[C@@H](C)OC)[nH]c2cc(F)ccc12)[C@@H](C)OC [B2] | ~1 nmol/L
2 | CN[C@@H](C)C(=O)N[C@H](C(=O)N1C[C@@H](O)C[C@H]1Cc1c(-c2[nH]c3cc(F)ccc3c2C[C@@H]2C[C@H](O)CN2C(=O)[C@@H](NC(=O)[C@H](C)NC)C(C)(C)C)[nH]c2cc(F)ccc12)C(C)(C)C [B3] | ~1 nmol/L
3 | CC[C@H](NC(=O)[C@H](C)NC)C(=O)N1C[C@@H](O)C[C@H]1Cc1c[nH]c2cc(F)ccc12 [M1] | ~1 nmol/L
4 | CN[C@@H](C)C(=O)N[C@H](C(=O)N1C[C@@H](O)C[C@H]1Cc1c[nH]c2cc(F)ccc12)[C@@H](C)OC [M2] | ~1 nmol/L
5 | CN[C@@H](C)C(=O)N[C@H](C(=O)N1C[C@@H](O)C[C@H]1Cc1c[nH]c2cc(F)ccc12)C(C)(C)C [M3] | ~1 nmol/L
